Results published in PubChem BioAssay (NCI).
Where “and” joins values, the source holds several entries; their conditions need not be identical. Equal values may be shown once.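 How tested: cells in 96-well plates exposed to compound for 48 hours at five concentrations. GI50 marks 50% less growth. TGI denotes the concentration required for complete inhibition of growth.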

What was measured:
Assay in all cases: DTP human tumour cell line panel, 48 h
M19-MEL melanoma = system: M19-MEL melanoma
DMS 114 small cell lung = system: DMS 114 small cell lung
LXFL 529 NSCLC = system: LXFL 529 NSCLC
XF 498 CNS = system: XF 498 CNS
KM20L2 colon = system: KM20L2 colon
RXF-631 renal = system: RXF-631 renal
SNB-78 CNS = system: SNB-78 CNS
DMS 273 small cell lung = system: DMS 273 small cell lung
MDA-N = system: MDA-N

SMILES	TGI (M19-MEL melanoma)	TGI (DMS 114 small cell lung)	TGI (LXFL 529 NSCLC)	TGI (XF 498 CNS)	TGI (KM20L2 colon)	TGI (RXF-631 renal) [µM]	TGI (SNB-78 CNS)	TGI (DMS 273 small cell lung)	other results
C[C@]12CCC3[C@@H](C[C@H]4OC(=O)[C@@]35CCC(=O)C=C45)C1CCC2=O (stereo partly specified)	> 100 µM	> 100 µM	> 100 µM	> 100 µM					
CN(C)c1ccc(/C=C/C(=O)c2ccccc2)cc1Br	37.1 µM	36.9 µM	28.8 µM	31.2 µM	57.6 µM				
COC(=O)CSc1ccccc1	> 100 µM		> 100 µM	> 100 µM	> 100 µM	> 100	> 100 µM	> 100 µM	
C/C(=N\Nc1ccc2ccccc2n1)c1ccccc1O									TGI (MDA-N): > 100 µM
COc1ccc(CN2C(=O)C(Cc3cc(OC)c(OC)c(C)c3OC)N(C(=O)OC(C)C)C(=O)/C2=C/c2cc(OC)c(OC)c(C)c2OC)cc1 (stereo unspecified)	> 100 µM	> 100 µM	> 100 µM		> 100 µM	> 100		> 100 µM	
O=c1cc2n(c(=O)[nH]1)C1OC(C(O)C1O)[C@H]2CCO (stereo partly specified)	> 100 µM	> 100 µM	> 100 µM		> 100 µM		> 100 µM	> 100 µM	
O=C1OC(c2ccccc2)C2CC3CC4(CCC3CN12)OCCO4 (stereo unspecified)			> 100 µM	> 100 µM	> 100 µM	> 100	> 100 µM	> 100 µM	
COc1ccc(C(=O)C(c2ccc(OC)cc2)C2C(=O)Oc3ccccc32)cc1 (stereo unspecified)	> 100 µM	> 100 µM	> 100 µM	> 100 µM	> 100 µM		> 100 µM	> 100 µM	GI50 (KM20L2 colon): > 100 µM; GI50 (M19-MEL melanoma): > 100 µM; GI50 (DMS 114 small cell lung): > 100 µM; GI50 (DMS 273 small cell lung): > 100 µM; GI50 (LXFL 529 NSCLC): > 100 µM; GI50 (XF 498 CNS): > 100 µM
Cc1cc(C)nc(NS(=O)(=O)c2ccc(NC(=O)c3cccc4c(Nc5ccc(S(=O)(=O)Nc6nc(C)cc(C)n6)cc5)c5ccccc5nc34)cc2)n1	> 100 µM		70.3 µM	79.7 µM	42.9 µM	42.6	> 100 µM	38.9 µM	
COC(=O)NNc1c([N+](=O)[O-])cnn(-c2ccccc2)c1=O	3.43 µM	13.8 µM	3.16 µM		7.78 µM	3.88		4 µM	TGI (MDA-N): 4.79 µM
O=C(Nc1ccc(Cl)c(Cl)c1)C(=O)Nn1c(=S)[nH]c2ccccc2c1=O	> 100 µM	> 100 µM	> 100 µM	> 100 µM	> 100 µM		> 100 µM	> 100 µM	
O=S(=O)(O)c1ccc(Cl)cc1.[Cd]									GI50 (MDA-N): 22.1 µM; TGI (MDA-N): 68.9 µM
O=C1CSC(=S)N1c1ccc(F)cc1F									TGI (MDA-N): > 100 µM
CCOC(=O)NC(=O)c1cn(CCCCCOC(=O)NCCCCCCNC(=O)OCCCCCn2cc(C(=O)NC(=O)OCC)c(=O)[nH]c2=O)c(=O)[nH]c1=O	> 100 µM	> 100 µM	> 100 µM		> 100 µM		> 100 µM	> 100 µM	
CSC(=S)N/N=C/c1ccccc1									TGI (MDA-N): > 100 µM
CCOc1cc(C=O)c2c(ccc3ccc(OC)c(OC)c32)c1OC									TGI (MDA-N): > 100 µM
O=c1c2cc(Br)ccc2[nH]c(=S)n1-c1ccc(Br)cc1	> 100 µM	> 100 µM	> 100 µM		> 100 µM		> 100 µM		
Cn1c(=O)nc2n(-c3ccc(F)cc3)c3ccccc3nc-2c1=O	10.6 µM	28.6 µM	> 100 µM	34.3 µM	48.7 µM		42.2 µM	36 µM	
O=C(CCc1nnc2s/c(=C\c3ccc4c(c3)OCO4)c(=O)n12)Nc1cc(Cl)ccc1Cl	> 100 µM	> 100 µM	> 100 µM	> 100 µM	> 100 µM	> 100	> 100 µM	> 100 µM	

SMILES	TGI (M19-MEL melanoma)	TGI (DMS 114 small cell lung)	TGI (LXFL 529 NSCLC)	TGI (XF 498 CNS)	TGI (KM20L2 colon)	TGI (RXF-631 renal) [µM]	TGI (SNB-78 CNS)	TGI (DMS 273 small cell lung)	other results
Cc1cc2cc(Cl)ccc2nc1C(=O)c1ccccc1	> 100 µM	> 100 µM	> 100 µM	> 100 µM	> 100 µM	> 100	> 100 µM	> 100 µM	
O=C1C(c2ccc([N+](=O)[O-])cc2)=[N+]([O-])c2ccccc21	41.5 µM	27.1 µM	> 100 µM				61.1 µM		
COc1cc(C2c3cc4c(cc3[C@H](NC(=O)c3cccs3)C3COC(=O)[C@H]23)OCO4)cc(OC)c1OC (stereo partly specified)			47.2 µM		0.0396 µM		> 100 µM	> 100 µM	
NC(=O)c1nnn(Cc2cc(Cl)c(C(=O)c3ccc(Cl)cc3)c(Cl)c2)c1N	> 9.09 µM and 27.4 µM	> 9.09 µM and 23.3 µM	> 9.09 µM and 21.1 µM	> 9.09 µM and 22.9 µM	> 9.09 µM and 17.4 µM	53.9	> 9.09 µM and 52.2 µM	> 9.09 µM and 21.2 µM	GI50 (KM20L2 colon): 2.79 µM; TGI (MDA-N): > 46.9 µM; GI50 (SNB-78 CNS): 19 µM; GI50 (M19-MEL melanoma): 14.1 µM; GI50 (DMS 114 small cell lung): 3.36 µM; GI50 (DMS 273 small cell lung): 5.77 µM; GI50 (XF 498 CNS): 10.8 µM
COc1ccc(C(=O)/C(=N/Nc2ccccc2)c2ccc(OC)cc2)cc1	> 100 µM	> 100 µM	> 100 µM	> 100 µM	51.5 µM	> 100	> 100 µM	> 100 µM	
CC(=O)Oc1ccc2ccc(=O)oc2c1OC(C)=O									TGI (MDA-N): > 100 µM
C[N+](C)(C)CCC(=O)N1C/C(=C\c2ccccc2)C(=O)/C(=C/c2ccccc2)C1	15.5 µM	> 22.3 µM	13.5 µM	27.6 µM	22 µM		22.9 µM	5.33 µM	TGI (MDA-N): 3.36 µM
[N-]=[N+]=Nc1ccccc1-[n+]1noc([O-])c1Br	> 100 µM	> 100 µM	> 100 µM		> 100 µM				
COCC1C(=O)c2cc3c(cc2C12C=CC1(C=C2)OCCO1)OCO3 (stereo unspecified)	14.7 µM	11.6 µM	9.82 µM	17.9 µM	22.7 µM	27.7		29.9 µM	
CN(C)c1ccccc1CC(c1c[nH]c2ccccc12)c1c[nH]c2ccccc12	29.1 µM	20.4 µM		31.5 µM	22.6 µM		32.5 µM	27.9 µM	
N#Cc1ccc(/C=N\N2C(=O)c3ccccc3C2=O)cc1	> 100 µM	> 100 µM	> 100 µM	> 100 µM	> 100 µM		> 100 µM	> 100 µM	
COc1ccc2nc3cc(Cl)ccc3c(NCCC(=O)OCC(O)C(O)C(O[C@H](C)C(=O)NC(C)C(=O)NC(CCC(N)=O)C(=O)OCc3ccccc3)C(C=O)NC(C)=O)c2c1 (stereo partly specified)	34.4 µM		31.2 µM	33.5 µM	32.7 µM	36.9	80.8 µM	27.6 µM	
COC(=O)CCC(=O)CC(=O)C(=O)Nc1ccc(F)cc1	> 100 µM	> 100 µM	> 100 µM		> 100 µM		> 100 µM	> 100 µM	
Nc1nc(=O)n(C2CC(O)C(O)C(CO)O2)cc1F (stereo unspecified)	> 100 µM	> 100 µM	> 100 µM	> 100 µM	> 100 µM	> 100	> 100 µM		
O=c1oc2c3ccc4ccccc4c3n(CCN3CCOCC3)c2c2ccccc12	> 100 µM	> 100 µM	> 100 µM		> 100 µM				
COc1c(OC(C)=O)c(OC(C)=O)cc2c1-c1ccc(OC)c(=O)cc1C(NC(C)=O)CC2 (stereo unspecified)	> 100 µM	0.121 µM	> 53 µM	16.2 µM	0.0795 µM	18.2	> 100 µM		
O=C(O)CN(CC(=O)O)Cc1cc2c(cc1O)Oc1cc(O)c(CN(CC(=O)O)CC(=O)O)cc1C21OC(=O)c2ccccc21									TGI (MDA-N): > 100 µM
COc1ccc2nc3cccc([N+](=O)[O-])c3c(NCCN(CCO)CCO)c2c1									GI50 (MDA-N): 0.023 µM; TGI (MDA-N): 0.0769 µM
